Consider eight molecules from PMC3880643 (Journal of medicinal chemistry, 2013).

Molecules are shown by their SMILES.

A short description of series [1]: In vitro metabolic stability in mouse liver microsomes.
Series [2] has as its system 13 other methyltransferases. The format is biochemical. The conditions noted are these: read-out: IC50 against 13 other methyltransferases.
A further series addresses PRC2 – EZH2 (Homo sapiens, UniProt Q15910). The series can be described thus: biochemical.
Series [3] relates to panel of 50 representative kinases. The series can be described thus: Kinase selectivity panel. The format is biochemical. The conditions noted are these: at 10,000 nM.
For series [4], the system named is 44 GPCRs, transporters, and ion channels. Format: binding.
The target in series [5] is T1, G9a (Homo sapiens, UniProt Q96KQ7).
T1 sequence (Q96KQ7 1-1210): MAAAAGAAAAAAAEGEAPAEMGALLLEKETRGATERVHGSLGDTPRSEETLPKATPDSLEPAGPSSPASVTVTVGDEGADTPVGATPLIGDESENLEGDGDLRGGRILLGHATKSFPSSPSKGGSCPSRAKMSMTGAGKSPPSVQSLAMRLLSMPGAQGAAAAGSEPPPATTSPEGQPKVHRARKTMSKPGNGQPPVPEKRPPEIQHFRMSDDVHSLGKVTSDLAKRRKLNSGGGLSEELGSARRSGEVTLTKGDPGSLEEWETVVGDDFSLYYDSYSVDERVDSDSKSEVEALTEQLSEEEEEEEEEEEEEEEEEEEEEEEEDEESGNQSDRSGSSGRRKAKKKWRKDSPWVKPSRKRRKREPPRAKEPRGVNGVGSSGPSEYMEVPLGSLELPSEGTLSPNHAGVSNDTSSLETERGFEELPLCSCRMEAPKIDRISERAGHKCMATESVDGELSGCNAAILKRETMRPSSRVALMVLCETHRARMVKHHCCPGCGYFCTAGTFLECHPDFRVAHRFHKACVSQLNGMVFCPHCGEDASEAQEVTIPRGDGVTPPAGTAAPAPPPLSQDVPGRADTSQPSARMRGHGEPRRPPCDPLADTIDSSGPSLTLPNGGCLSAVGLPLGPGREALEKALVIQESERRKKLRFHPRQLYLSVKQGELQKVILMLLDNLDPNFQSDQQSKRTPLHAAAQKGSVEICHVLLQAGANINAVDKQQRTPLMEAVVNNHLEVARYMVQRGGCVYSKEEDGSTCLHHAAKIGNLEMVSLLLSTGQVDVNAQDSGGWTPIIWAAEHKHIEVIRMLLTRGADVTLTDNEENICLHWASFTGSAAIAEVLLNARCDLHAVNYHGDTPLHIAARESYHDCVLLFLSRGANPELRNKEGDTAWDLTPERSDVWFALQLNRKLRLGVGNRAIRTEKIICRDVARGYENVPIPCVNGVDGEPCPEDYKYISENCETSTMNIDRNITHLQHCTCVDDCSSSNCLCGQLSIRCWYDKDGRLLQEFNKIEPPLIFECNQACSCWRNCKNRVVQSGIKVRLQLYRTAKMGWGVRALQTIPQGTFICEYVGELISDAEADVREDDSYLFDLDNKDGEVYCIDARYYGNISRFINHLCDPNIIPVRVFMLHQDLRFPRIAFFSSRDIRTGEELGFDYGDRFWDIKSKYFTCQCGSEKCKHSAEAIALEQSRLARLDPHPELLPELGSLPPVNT
In words: Competition of inhibitor with cofactor SAM. The format is biochemical. The following applies: Km app of SAM versus inhibitor concentration.

Series [6] is described as follows: Resazurin cell toxicity assay. The format is cell-based. The conditions noted are these: human, U2OS cells.
The nature of series [7]: Resazurin cell toxicity assay. The conditions noted are these: human, PANC-1 cells, Cell Toxicity EC50, PANC-1 cells. The format is cell-based. A general note: Alamar Blue is a resazurin reagent that responds to reducing activity.
In another series the test system is PANC-1 cells. The series can be described thus: Clonogenicity assay. The conditions noted are these: 2 weeks, 0.5 or 1 µM. Format: cell-based.
In series [8] the test system is MDA-MB-231 cells. In words: Clonogenicity assay. The format is cell-based. The following applies: 2 weeks, 0.5 or 1 µM.
For series [9], the target named is T1, G9a. The conditions noted are these: Km app of peptide versus inhibitor concentration.
The nature of another series: Resazurin. The conditions noted are these: human.
For series [10], the system named is MDA-MB-231 cells. In words: Resazurin. The conditions noted are these: MDA-MB-231 cells.

Chain of PRC2 – EZH2 (Q15910 whole entry): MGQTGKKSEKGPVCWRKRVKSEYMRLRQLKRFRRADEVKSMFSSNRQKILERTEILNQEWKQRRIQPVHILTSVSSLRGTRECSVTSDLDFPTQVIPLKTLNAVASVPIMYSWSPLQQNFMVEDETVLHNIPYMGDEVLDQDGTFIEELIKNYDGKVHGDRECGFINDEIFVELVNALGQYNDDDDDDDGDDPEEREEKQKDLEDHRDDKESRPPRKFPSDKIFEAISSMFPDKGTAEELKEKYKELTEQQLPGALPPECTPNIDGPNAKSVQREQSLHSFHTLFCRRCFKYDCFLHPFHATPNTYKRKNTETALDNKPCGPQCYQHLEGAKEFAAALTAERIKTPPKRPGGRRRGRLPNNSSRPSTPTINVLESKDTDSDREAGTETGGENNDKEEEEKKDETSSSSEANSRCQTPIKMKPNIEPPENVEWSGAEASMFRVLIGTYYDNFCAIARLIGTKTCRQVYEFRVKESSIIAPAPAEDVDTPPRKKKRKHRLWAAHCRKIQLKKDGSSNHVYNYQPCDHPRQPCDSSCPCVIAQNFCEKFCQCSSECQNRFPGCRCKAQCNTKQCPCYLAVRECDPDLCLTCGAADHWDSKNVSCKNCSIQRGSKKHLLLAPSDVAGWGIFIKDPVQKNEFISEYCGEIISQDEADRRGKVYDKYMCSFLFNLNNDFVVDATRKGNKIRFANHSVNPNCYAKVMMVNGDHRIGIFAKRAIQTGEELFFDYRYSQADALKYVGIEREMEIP
Chain of PRC2 – EZH2 (O75530 whole entry, further chain): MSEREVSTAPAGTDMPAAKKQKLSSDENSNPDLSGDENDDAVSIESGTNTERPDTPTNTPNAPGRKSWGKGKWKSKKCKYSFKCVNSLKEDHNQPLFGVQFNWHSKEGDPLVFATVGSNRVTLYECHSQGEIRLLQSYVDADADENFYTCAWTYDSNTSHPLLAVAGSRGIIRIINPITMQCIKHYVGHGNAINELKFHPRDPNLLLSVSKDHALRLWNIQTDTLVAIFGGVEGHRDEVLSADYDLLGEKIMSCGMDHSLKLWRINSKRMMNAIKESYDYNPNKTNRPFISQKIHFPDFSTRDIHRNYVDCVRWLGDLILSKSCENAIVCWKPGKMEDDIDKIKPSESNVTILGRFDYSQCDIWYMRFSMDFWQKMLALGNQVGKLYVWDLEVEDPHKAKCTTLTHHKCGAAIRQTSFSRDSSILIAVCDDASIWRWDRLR
Chain of PRC2 – EZH2 (Q15022 whole entry, further chain): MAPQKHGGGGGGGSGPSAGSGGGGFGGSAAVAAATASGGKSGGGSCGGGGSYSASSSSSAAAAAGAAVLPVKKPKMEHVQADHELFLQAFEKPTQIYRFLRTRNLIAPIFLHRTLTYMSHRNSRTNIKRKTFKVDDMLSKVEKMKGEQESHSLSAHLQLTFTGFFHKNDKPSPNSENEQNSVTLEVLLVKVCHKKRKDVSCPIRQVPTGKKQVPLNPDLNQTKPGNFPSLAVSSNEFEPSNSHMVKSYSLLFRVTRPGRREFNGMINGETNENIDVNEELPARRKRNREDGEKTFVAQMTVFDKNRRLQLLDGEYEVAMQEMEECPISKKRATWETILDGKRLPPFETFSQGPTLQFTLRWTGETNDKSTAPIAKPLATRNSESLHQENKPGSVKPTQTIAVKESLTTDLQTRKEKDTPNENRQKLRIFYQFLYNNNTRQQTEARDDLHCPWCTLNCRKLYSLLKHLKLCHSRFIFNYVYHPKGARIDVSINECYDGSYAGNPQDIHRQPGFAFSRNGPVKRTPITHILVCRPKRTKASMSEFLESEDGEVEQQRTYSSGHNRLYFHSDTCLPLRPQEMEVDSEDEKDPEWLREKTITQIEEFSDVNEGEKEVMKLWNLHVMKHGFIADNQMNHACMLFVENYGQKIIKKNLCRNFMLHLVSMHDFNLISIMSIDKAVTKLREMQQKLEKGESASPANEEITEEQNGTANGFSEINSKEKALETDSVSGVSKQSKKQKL

`COc1cc2c(NC3CCN(C(C)C)CC3)nc(C3CCCCC3)nc2cc1OCCCN1CCCC1` [Compound 5, reference compound] yielded a CLint in series [1] of 1.0 mL/min/g liver.
By IC50 is commonly meant the concentration that gives 50% inhibition. The EC50 is the midpoint of the concentration-response curve. `COc1cc2c(NC3CCN(C(C)C)CC3)nc(N3CCC(F)(F)CC3)nc2cc1OCCCN1CCCC1` [Compound 7, 2-(4,4-Difluoropiperidin-1-yl)-N-(1-isopropylpiperidin-4-yl)-6-methoxy-7-(3-(pyrrolidin-1-yl)propoxy)quinazolin-4-amine]: the IC50 in [2] is more than 50 µM; against PRC2 – EZH2 it was more than 5 µM. In addition, in series [3], the “Inhibition of panel of 50 representative kinases” value was “less than 20%”. The “Inhibition against 5 targets of the 44-target panel” value in series [4] was more than 50%. For the same molecule, the “Inhibition against 39 targets of the 44-target panel” value in series [4] is reported as “less than 50%”. Also, the “Mechanism of action versus cofactor SAM” value at G9a [5] is “non-competitive with the cofactor SAM”. Besides, the EC50 at 48 h in series [6] and in series [7] was more than 3 µM each time. Also, the Effect on clonogenicity entry with PANC-1 cells was “reduced clonogenicity in PANC-1 cells in a concentration-dependent manner”; with MDA-MB-231 cells [8], “no effect on clonogenicity”. Further, on G9a [9], the “Mechanism of action versus peptide substrate” value is “competitive with the peptide substrate”. The CLint in series [1] is reported as 0.5 mL/min/g liver.
`COc1cc2c(NC3CCN(C(C)C)CC3)nc(N3CCOCC3)nc2cc1OCCCN1CCCC1` [Compound 13, N-(1-Isopropylpiperidin-4-yl)-6-methoxy-2-morpholino-7-(3-(pyrrolidin-1-yl)propoxy)quinazolin-4-amine] yielded a CLint in [1] of 0.7 mL/min/g liver.
For `COc1cc2c(NC3CCN(C(C)C)CC3)nc(N3CC(F)(F)C(F)(F)C3)nc2cc1OCCCN1CCCC1` [Compound 15, N-(1-Isopropylpiperidin-4-yl)-6-methoxy-7-(3-(pyrrolidin-1-yl)propoxy)-2-(3,3,4,4-tetrafluoropyrrolidin-1-yl)quinazolin-4-amine], the CLint in series [1] was less than 0.5 mL/min/g liver.
In turn, `COc1cc2c(NC3CCN(C(C)C)CC3)nc(N3CCCCC3)nc2cc1OCCCN1CCCC1` [Compound 16] came in with an EC50 at 48 h in “Resazurin” of 7 µM.
With `COc1cc2c(NC3CCN(C(C)C)CC3)nc(N3CCCCCC3)nc2cc1OCCCN1CCCC1` [Compound 17], in the series on MDA-MB-231 cells [10] (read-out: Cell Toxicity EC50, 48 h), the EC50 came out at 5.7 µM.
Molecule `COc1cc2c(NC3CCN(C4CC4)CC3)nc(N3CCS(=O)(=O)CC3)nc2cc1OCCCN1CCCC1` [Compound 19, 4-(4-((1-Cyclopropylpiperidin-4-yl)amino)-6-methoxy-7-(3-(pyrrolidin-1-yl)propoxy)quinazolin-2-yl)thiomorpholine 1,1-dioxide] registered an EC50 at 48 h in the series “Resazurin” of more than 50 µM.
For `COc1cc2c(NC3CCN(C(C)C)CC3)nc(C3CCOCC3)nc2cc1OCCCN1CCCC1` [Compound 22, N-(1-Isopropylpiperidin-4-yl)-6-methoxy-7-(3-(pyrrolidin-1-yl)propoxy)-2-(tetrahydro-2H-pyran-4-yl)quinazolin-4-amine], in “Resazurin”, the EC50 at 48 h is more than 50 µM. Moreover, the “Tox/function Ratio” value in the series with MDA-MB-231 cells [10] (toxicity EC50 divided by functional IC50) is recorded as more than 130. The same molecule came in with a CLint in series [1] of 4.7 mL/min/g liver.
